These results are taken from ChEMBL document CHEMBL3259750, “The antibacterial properties of sulfur containing flavonoids” (2014).

Experiment [1] deals with Staphylococcus aureus. Put plainly: Antibacterial activity against Staphylococcus aureus ATCC 25923 assessed as diameter of growth inhibition zone at 0.5 mg/ml after 24 hrs by disk diffusion assay. As to conditions: for zone of inhibition at 500 µg/mL: ATCC 25923, 24 h, read-out: DIZ. It counts as functional.
Experiment [2] concerns Escherichia coli. Put plainly: Antibacterial activity against Escherichia coli ATCC 25922 assessed as diameter of growth inhibition zone at 0.25 mg/ml after 24 hrs by disk diffusion assay. The class given is functional. As to conditions: for zone of inhibition at 250 µg/mL: ATCC 25922, 24 h, read-out: DIZ. A general note: A growth-free zone around the sample is the usual read-out of agar diffusion tests.

Experiment [3] deals with Escherichia coli. Put plainly: Antibacterial activity against Escherichia coli ATCC 25922 assessed as diameter of growth inhibition zone at 1 mg/ml after 24 hrs by disk diffusion assay. It counts as functional. As to conditions: for zone of inhibition at 1000 µg/mL: ATCC 25922, 24 h, read-out: DIZ.
For experiment [4], the system named is Staphylococcus aureus. Put plainly: Antibacterial activity against Staphylococcus aureus ATCC 25923 assessed as diameter of growth inhibition zone at 1 mg/ml after 24 hrs by disk diffusion assay. The class given is functional. As to conditions: for zone of inhibition at 1000 µg/mL: ATCC 25923, 24 h, read-out: DIZ.
Experiment [5] relates to Staphylococcus aureus. In words: Antibacterial activity against Staphylococcus aureus ATCC 25923 assessed as diameter of growth inhibition zone at 0.25 mg/ml after 24 hrs by disk diffusion assay. The following applies: for zone of inhibition at 250 µg/mL: ATCC 25923, 24 h, read-out: DIZ. The class given is functional.
The test system of experiment [6] is Escherichia coli. Put plainly: Antibacterial activity against Escherichia coli ATCC 25922 assessed as diameter of growth inhibition zone at 0.5 mg/ml after 24 hrs by disk diffusion assay. It counts as functional. The following applies: for zone of inhibition at 500 µg/mL: ATCC 25922, 24 h, read-out: DIZ.
Experiment [7] has as its system Staphylococcus aureus. In words: Antibacterial activity against Staphylococcus aureus ATCC 25923 assessed as growth inhibition after 18 hrs by colorimetric microdilution technique. It counts as functional. The following applies: ATCC 25923, 18 h.
Another experiment deals with Candida albicans. In words: Antifungal activity against Candida albicans ATCC 90028. The class given is functional, organism-based.
Experiment [8] concerns Escherichia coli. Put plainly: Antibacterial activity against Escherichia coli ATCC 25922 assessed as growth inhibition after 18 hrs by colorimetric microdilution technique. The class given is functional. As to conditions: ATCC 25922, 18 h. (In broth dilution the organism is exposed to a series of concentrations in liquid medium.)
Experiment [9] concerns Escherichia coli. Put plainly: Antibacterial activity against Escherichia coli ATCC 25922 assessed as diameter of growth inhibition zone at 10 ug/disk after 24 hrs by disk diffusion assay. The class given is functional, organism-based.
Experiment [10] has as its system Staphylococcus aureus. Put plainly: Antibacterial activity against Staphylococcus aureus ATCC 25923 assessed as diameter of growth inhibition zone at 10 ug/disk after 24 hrs by disk diffusion assay. The class given is functional, organism-based.

Active and inactive are the calls of the source. The rule behind the calls is not given here.

With `CCN(CC)C(=S)SC1C(=O)c2cc(Br)cc(Br)c2OC1c1ccc(Cl)cc1` (stereo not given), the “diameter of the inhibition zone (DIZ)” value in the experiment with Staphylococcus aureus [1], with Escherichia coli [2], in the experiment with Escherichia coli [3], with Staphylococcus aureus [4], with Staphylococcus aureus [5] and in the experiment with Escherichia coli [6] was “inactive” in each case.
Turning to `CCN(CC)[c+]1sc2c(s1)C(c1ccc(Cl)cc1)Oc1ccccc1-2.F[B-](F)(F)F` (stereo not given), the zone of inhibition at 500 µg/mL with Staphylococcus aureus [1] was 14.3 mm. Besides, the values for the MIC in the experiment with Staphylococcus aureus [7] and in the experiment with Escherichia coli [8] were 1.95 µg/mL and 62.5 µg/mL, respectively. The “diameter of the inhibition zone (DIZ)” value in the experiment on Escherichia coli [2], in the experiment on Escherichia coli [3] and in the experiment with Escherichia coli [6] was “inactive” throughout. Moreover, the outcome with Candida albicans was Active. Besides, in the experiment with Staphylococcus aureus [4], the zone of inhibition at 1000 µg/mL amounted to 16.3 mm. In addition, the zone of inhibition at 250 µg/mL in the experiment on Staphylococcus aureus [5] is 7.33 mm.
As for `CCN(CC)[c+]1sc2c(s1)C(c1ccc(Cl)cc1)Oc1c(Br)cc(Br)cc1-2.F[B-](F)(F)F` (stereo not given), in the experiment on Staphylococcus aureus [1], the zone of inhibition at 500 µg/mL worked out at 18.7 mm. For the same molecule, the MIC was found to be 1.95 µg/mL with Staphylococcus aureus [7] and 7.81 µg/mL in the experiment on Escherichia coli [8]. Further, the “diameter of the inhibition zone (DIZ)” value in the experiment on Escherichia coli [2] and in the experiment with Escherichia coli [6] was “inactive” each time. Besides, the outcome in the experiment on Candida albicans was Active. The results for the zone of inhibition at 1000 µg/mL with Escherichia coli [3] and in the experiment with Staphylococcus aureus [4] were 10.7 mm and 21.3 mm, respectively. Besides, the zone of inhibition at 250 µg/mL in the experiment on Staphylococcus aureus [5] was 17.7 mm.
As for `CCN(CC)[c+]1sc2c(s1)C(c1ccc(Cl)cc1)Oc1c(I)cc(I)cc1-2.F[B-](F)(F)F` (stereo not given), the results for the MIC in the experiment with Staphylococcus aureus [7] and with Escherichia coli [8] were 0.97 µg/mL and 15.6 µg/mL, respectively.
For the molecule `CCN(CC)C(=S)SC1C(=O)c2cc(I)cc(I)c2OC1c1ccc(Cl)cc1` (stereo not given), the “diameter of the inhibition zone (DIZ)” value in the experiment with Staphylococcus aureus [1], with Escherichia coli [2], in the experiment on Escherichia coli [3], in the experiment on Staphylococcus aureus [4], in the experiment on Staphylococcus aureus [5] and in the experiment with Escherichia coli [6] was “inactive” in each case.
`CCN(CC)C(=S)SC1C(=O)c2cc(Br)ccc2OC1c1ccc(Cl)cc1` (stereo not given): the “diameter of the inhibition zone (DIZ)” value in the experiment on Staphylococcus aureus [1], with Escherichia coli [2], in the experiment on Escherichia coli [3], in the experiment with Staphylococcus aureus [4], in the experiment with Staphylococcus aureus [5] and with Escherichia coli [6] was “inactive” in each case.
For the molecule `CCN(CC)C(=S)SC1C(=O)c2ccccc2OC1c1ccc(Cl)cc1` (mixture of isomers), the “diameter of the inhibition zone (DIZ)” value in the experiment with Staphylococcus aureus [1], in the experiment on Escherichia coli [2], in the experiment with Escherichia coli [3], in the experiment on Staphylococcus aureus [4], in the experiment on Staphylococcus aureus [5] and in the experiment on Escherichia coli [6] was “inactive” throughout.
With GENTAMICIN, the figures for the inhibition zone (IZ) with Escherichia coli [9] and with Staphylococcus aureus [10] were 15.8 mm and 18.3 mm, respectively.
Turning to `CCN(CC)[c+]1sc2c(s1)C(c1ccc(OC)cc1)Oc1ccc(Br)cc1-2.F[B-](F)(F)F` (stereo not given), the minimum inhibitory concentration (MIC) in the experiment with Staphylococcus aureus [7] was determined as 1.95 µg/mL; with Escherichia coli [8], 125 µg/mL.
For the molecule `CCN(CC)C(=S)SC1C(=O)c2cc(Br)ccc2OC1c1ccc(OC)cc1` (mixture of isomers), the “diameter of the inhibition zone (DIZ)” value in the experiment with Staphylococcus aureus [1], with Escherichia coli [2], in the experiment with Escherichia coli [3], in the experiment on Staphylococcus aureus [4], with Staphylococcus aureus [5] and with Escherichia coli [6] was “inactive” throughout.
Consider `CCN(CC)[c+]1sc2c(s1)C(c1ccc(Cl)cc1)Oc1ccc(Br)cc1-2.[O-][Cl+3]([O-])([O-])[O-]` (stereo not given), for which the figures for the zone of inhibition at 500 µg/mL in the experiment on Staphylococcus aureus [1] and with Escherichia coli [6] were 17.3 mm and 10.7 mm, respectively. In addition, the MIC in the experiment with Staphylococcus aureus [7] amounted to 0.48 µg/mL; in the experiment with Escherichia coli [8] it was 3.9 µg/mL. Moreover, the values for the zone of inhibition at 250 µg/mL in the experiment on Escherichia coli [2] and in the experiment on Staphylococcus aureus [5] were 8.33 mm and 15 mm, respectively. Also, the values for the zone of inhibition at 1000 µg/mL in the experiment with Escherichia coli [3] and in the experiment on Staphylococcus aureus [4] were 11.7 mm and 20.3 mm, respectively.
For `CCN(CC)[c+]1sc2c(s1)C(c1ccc(OC)cc1)Oc1ccc(Br)cc1-2.[O-][Cl+3]([O-])([O-])[O-]` (stereo not given), the zone of inhibition at 500 µg/mL stood at 9.66 mm in the experiment with Staphylococcus aureus [1] and 7.33 mm in the experiment with Escherichia coli [6]. Also, the MIC came to 3.9 µg/mL with Staphylococcus aureus [7] and 125 µg/mL in the experiment on Escherichia coli [8]. For the same molecule, the zone of inhibition at 250 µg/mL stood at 6.66 mm with Escherichia coli [2] and 7.66 mm in the experiment on Staphylococcus aureus [5]. Besides, the results for the zone of inhibition at 1000 µg/mL in the experiment with Escherichia coli [3] and with Staphylococcus aureus [4] were 7.66 mm and 13.7 mm, respectively.
On to `CCN(CC)[c+]1sc2c(s1)C(c1ccc(Cl)cc1)Oc1c(I)cc(I)cc1-2.[O-][Cl+3]([O-])([O-])[O-]` (stereo not given), for which the zone of inhibition at 500 µg/mL in the experiment on Staphylococcus aureus [1] was 14 mm; with Escherichia coli [6] it was 8.33 mm. Moreover, the figures for the MIC in the experiment on Staphylococcus aureus [7] and in the experiment on Escherichia coli [8] were 1.95 µg/mL and 7.81 µg/mL, respectively. The figures for the zone of inhibition at 250 µg/mL in the experiment with Escherichia coli [2] and with Staphylococcus aureus [5] were 7.66 mm and 8.33 mm, respectively. Moreover, the zone of inhibition at 1000 µg/mL was 9.33 mm in the experiment with Escherichia coli [3] and 16.7 mm in the experiment with Staphylococcus aureus [4].
In the case of `CCN(CC)[c+]1sc2c(s1)C(c1ccc(Cl)cc1)Oc1ccc(Br)cc1-2.F[B-](F)(F)F` (stereo not given), the minimum inhibitory concentration (MIC) was 0.48 µg/mL in the experiment on Staphylococcus aureus [7] and 3.9 µg/mL in the experiment on Escherichia coli [8].

As usually defined, the MIC is the least concentration at which growth counts as inhibited.
